From patent US20240060986A1, “METHOD FOR SELECTING PEPTIDE […] ON PROTEIN CYTOTOXICITY” (priority 2022, published 2024)
No end group written: not given here.

Target: T1, main protease (M^pro) of SARS-CoV2 virus (Severe acute respiratory syndrome coronavirus 2, UniProt P0DTD1)
T1 construct: 30 μl of 3CL Protease enzyme solution (0.05 ng/ul) was mixed with 10 μl of peptides; purchased BPS Bioscience 78042-1
Assay: biochemical

Row | Sequence | IC50 [µM]
1 | PVHPQMQTETGTAHC [Peptide M14] | 1200
2 | RQDLDYQRRRGAGISSTLVQSRK [Peptide M3] | 750
